The target of experiment [1] is T1, PRMT5 (Homo sapiens, UniProt O14744).
T1 construct: purchased Viva (custom protein)
Put plainly: PRMT5 biochemical IC50 assay with SAM as cofactor. The conditions noted are these: PRMT5, SAM as cofactor; read-out: SAM IC50.

Experiment [2] concerns the target T1, PRMT5. Put plainly: PRMT5 biochemical IC50 assay with no cofactor. As to conditions: PRMT5, no cofactor. The source says:
Table 1 indicates IC50 values (μM) against PRMT5 for exemplary compounds in the presence of SAM as cofactor, with no cofactor, and with MTA as cofactor, respectively (columns 4-6). […] Ki values can be calculated from the IC50 values as described in the Examples section. As detailed in the Examples section, for the assay performed in the presence of SAM, IC50=Ki×1.5 (Ki=IC50/1.5).

Experiment [3] has as its system HAP1 MTAP-deleted cell line. Put plainly: SDMA in-cell western assay, HAP1 MTAP-deleted. The class given is cell-based. The conditions noted are these: for IC50: Homo sapiens, HAP1, SDMA in-cell western, HAP1 MTAP-deleted; for MTAP intact/deleted ratio: SDMA in-cell western. The essentials:
(§1)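 Readout: in-cell western detection of SDMA. Cells: HAP1 expressing endogenous MTAP and an MTAP-null HAP1 counterpart. Output: IC50.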

The subject of experiment [4] is HAP1 MTAP-intact cell line. Put plainly: SDMA in-cell western assay, HAP1 MTAP-intact. The class given is cell-based. As to conditions: Homo sapiens, HAP1, SDMA in-cell western, HAP1 MTAP-intact; read-out: MTAP HAP1 intact IC50. The essentials:
as §1

Experiment [5] addresses T1, PRMT5. Put plainly: PRMT5 biochemical IC50 assay with MTA as cofactor. As to conditions: PRMT5, MTA as cofactor; read-out: MTA IC50.
Experiment [6] concerns HAP1 MTAP-deleted cell line. Put plainly: Viability assay, MTAP-deleted cell line. The class given is cell-based. As to conditions: Homo sapiens, read-out: HAP1 MTAP deleted viability. The text has this: Table 1 additionally indicates IC50 values in a viability assay for the MTAP-deleted cell line (column 10), indicating the effect of treatment with compound on cell survival.

The mark [7] stands for this setting: read-out: HAP 1 MTAP deleted IC50.
Where [8] appears, read: IC50 ratio HAP1 MTAP-intact / HAP1 MTAP-deleted.
[9] abbreviates: HAP1, viability IC50, MTAP-deleted cell line.
Where [10] appears, read: read-out: HAP1 MTAP deleted IC50.
[11] abbreviates: HAP1, viability assay, MTAP-deleted cell line.
Setting [12] is: read-out: No Cofactor/ rel IC50.
Setting [13] is: HAP1, viability assay, HAP1 MTAP-deleted.
The mark [14] stands for this setting: IC50 ratio HAP1 MTAP-intact vs HAP1 MTAP-deleted.

From US11999727B2 (Tango Therapeutics, Inc., priority 2020, dated 2024) come the findings set out here.

T1 sequence (O14744 whole entry): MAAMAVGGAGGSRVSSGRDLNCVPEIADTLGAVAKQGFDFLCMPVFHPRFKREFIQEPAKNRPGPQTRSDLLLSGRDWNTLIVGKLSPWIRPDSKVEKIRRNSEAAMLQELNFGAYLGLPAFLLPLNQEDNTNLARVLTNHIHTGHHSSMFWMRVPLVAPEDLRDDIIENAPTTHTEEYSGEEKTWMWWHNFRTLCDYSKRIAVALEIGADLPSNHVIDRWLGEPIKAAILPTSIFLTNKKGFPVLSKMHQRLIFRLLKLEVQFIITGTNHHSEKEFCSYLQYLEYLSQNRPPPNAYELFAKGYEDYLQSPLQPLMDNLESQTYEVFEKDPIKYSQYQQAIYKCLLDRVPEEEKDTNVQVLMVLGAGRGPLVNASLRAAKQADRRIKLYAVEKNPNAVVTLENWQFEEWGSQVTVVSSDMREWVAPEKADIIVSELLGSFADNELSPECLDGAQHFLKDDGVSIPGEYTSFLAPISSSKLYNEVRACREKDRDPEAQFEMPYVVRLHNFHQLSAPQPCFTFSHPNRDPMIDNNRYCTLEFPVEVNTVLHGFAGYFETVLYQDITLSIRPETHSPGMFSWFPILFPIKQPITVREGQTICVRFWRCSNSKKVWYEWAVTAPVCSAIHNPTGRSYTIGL
T1 sequence (Q9BQA1 whole entry partner): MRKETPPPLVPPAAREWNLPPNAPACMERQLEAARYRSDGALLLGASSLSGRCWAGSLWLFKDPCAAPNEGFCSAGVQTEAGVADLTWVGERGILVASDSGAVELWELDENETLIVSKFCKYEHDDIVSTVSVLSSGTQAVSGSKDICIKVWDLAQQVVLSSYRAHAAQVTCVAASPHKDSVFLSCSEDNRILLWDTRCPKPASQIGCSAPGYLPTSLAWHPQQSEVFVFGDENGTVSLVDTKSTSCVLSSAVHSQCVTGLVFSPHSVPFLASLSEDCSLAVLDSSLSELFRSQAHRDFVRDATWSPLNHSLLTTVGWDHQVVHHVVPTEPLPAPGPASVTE

For `C[C@H]1CC[C@H](c2ccc(C(F)(F)F)c(Cl)c2)N(C(=O)C(=O)Nc2cncc(C(N)=O)c2)C1` (single isomer, unassigned) [Compound 655], the IC50 in experiment [1] is less than 0.05 µM; in experiment [2] (read-out: No Cofactor/rel IC50), 0.05 to 0.5 µM; in experiment [3] (setting [7]), 0.1 to 1 µM; in experiment [4], greater than 1 µM; in experiment [5], less than 0.05 µM; in experiment [6] (setting [9]), 1 to 10 µM. For the same compound, the MTAP intact/deleted ratio result in experiment [3] (setting [8]) is “A (an IC50 ratio greater than or equal to 10 fold)”.
As for `CN(C)c1cccc([C@@H]2CCCCN2C(=O)C(=O)Nc2cncc(C(N)=O)c2)c1` (single isomer, unassigned) [Compound 365], the IC50 is 0.05 to 0.5 µM in experiment [1]; 0.05 to 0.5 µM in experiment [2] (read-out: No Cofactor/rel IC50); less than 0.1 µM in experiment [3] (setting [10]); greater than 1 µM in experiment [4]; less than 0.05 µM in experiment [5]; 1 to 10 µM in experiment [6] (setting [11]). For the same compound, the MTAP intact/deleted ratio entry in experiment [3] (setting [8]) is recorded as “A (an IC50 ratio greater than or equal to 10 fold)”.
Take `C[C@@H]1CC[C@@H](c2cccc(N(C)C)c2)N(C(=O)C(=O)Nc2cncc(C(N)=O)c2)C1` (single isomer, unassigned) [Compound 375]: the IC50 in experiment [1] was 0.05 to 0.5 µM; in experiment [2] (read-out: No Cofactor/rel IC50) it was 0.05 to 0.5 µM; in experiment [3] (setting [10]) it was less than 0.1 µM; in experiment [4], greater than 1 µM; in experiment [5], less than 0.05 µM; in experiment [6] (setting [11]), 1 to 10 µM. For the same compound, the MTAP intact/deleted ratio result in experiment [3] (setting [8]) was “A (an IC50 ratio greater than or equal to 10 fold)”.
`NC(=O)c1cncc(NC(=O)C(=O)N2CCCC[C@@H]2c2ccccc2)c1` (single isomer, unassigned) [Compound 85]: the IC50 in experiment [1] is 0.05 to 0.5 µM; in experiment [2] (setting [12]), 0.05 to 0.5 µM; in experiment [3] (setting [7]) it was 0.1 to 1 µM; in experiment [4], greater than 1 µM; in experiment [5], less than 0.05 µM; in experiment [6] (setting [11]), greater than 10 µM. In addition, the “MTAP intact/deleted ratio” value in experiment [3] (setting [8]) is “A (an IC50 ratio greater than or equal to 10 fold)”.
As for `Cc1c(NC(=O)C(=O)N2[C@H](C)CCC[C@@H]2c2ccccc2)cnc(N)c1C` (single isomer, unassigned) [Compound 439], the IC50 in experiment [1] was 0.05 to 0.5 µM; in experiment [2] (read-out: No Cofactor/rel IC50), 0.05 to 0.5 µM; in experiment [3] (setting [10]) it was less than 0.1 µM; in experiment [4] it was greater than 1 µM; in experiment [5], less than 0.05 µM; in experiment [6] (setting [11]), 1 to 10 µM. Further, the MTAP intact/deleted ratio result in experiment [3] (setting [8]) was “A (an IC50 ratio greater than or equal to 10 fold)”.
As to `Cc1cc(NC(=O)C(=O)N2[C@@H](C)CCC[C@H]2c2ccccc2)cnc1N` (single isomer, unassigned) [Compound 417], the IC50 in experiment [1] is 0.05 to 0.5 µM; in experiment [2] (read-out: No Cofactor/rel IC50), greater than 0.5 µM; in experiment [3] (setting [10]), 0.1 to 1 µM; in experiment [4] it was greater than 1 µM; in experiment [5] it was 0.05 to 0.5 µM; in experiment [6] (setting [11]), greater than 10 µM. Moreover, the MTAP intact/deleted ratio entry in experiment [3] (setting [8]) is on record as “B (an IC50 ratio greater than or equal to 3 fold but lower than 10 fold)”.
As to `CCc1cc(NC(=O)C(=O)N2C[C@@H](C)CC[C@@H]2c2ccc(C(N)=O)s2)cnc1N` (single isomer, unassigned) [Compound 845], the IC50 was greater than 0.5 µM in experiment [1]; greater than 0.5 µM in experiment [2] (read-out: No Cofactor/rel IC50); greater than 1 µM in experiment [3] (setting [10]); greater than 1 µM in experiment [4]; greater than 0.5 µM in experiment [5]; greater than 10 µM in experiment [6] (setting [13]). For the same compound, the MTAP intact/deleted ratio result in experiment [3] (setting [8]) is “B (an IC50 ratio greater than or equal to 3 fold but lower than 10 fold)”.
Consider `C[C@@H]1CC[C@@H](c2cc3cn[nH]c3s2)N(C(=O)C(=O)Nc2cncc(C(N)=O)c2)C1` (single isomer, unassigned) [Compound 943, 5-(2-(5-methyl-2-(1H-thieno[2,3-c]pyrazol-5-yl)piperidin-1-yl)-2-oxoacetamido)nicotinamide], for which the IC50 in experiment [1] was 0.05 to 0.5 µM; in experiment [2] (read-out: No Cofactor/rel IC50), less than 0.05 µM; in experiment [3] (setting [7]), less than 0.1 µM; in experiment [4] it was 0.1 to 1 µM; in experiment [5], less than 0.05 µM; in experiment [6] (setting [11]), less than 1 µM. Besides, the MTAP intact/deleted ratio entry in experiment [3] (setting [8]) is given as “A (an IC50 ratio greater than or equal to 10 fold)”.
For `C[C@@H]1CC[C@@H]2CCCC[C@@H]2N1C(=O)C(=O)Nc1cncc(C(N)=O)c1` (single isomer, unassigned) [Compound 236], the IC50 in experiment [1] was greater than 0.5 µM; in experiment [2] (read-out: No Cofactor/rel IC50), greater than 0.5 µM; in experiment [3] (setting [10]) it was greater than 1 µM; in experiment [4], greater than 1 µM; in experiment [5], 0.05 to 0.5 µM; in experiment [6] (setting [11]), greater than 10 µM. Also, in experiment [3] (setting [8]), the MTAP intact/deleted ratio entry is on record as “B (an IC50 ratio greater than or equal to 3 fold but lower than 10 fold)”.
For `CCc1cc(NC(=O)C(=O)N2C[C@@H](C)CC[C@@H]2c2ccc3c(c2)CNC3=O)cnc1N` (single isomer, unassigned) [Compound 696, N-(6-amino-5-ethylpyridin-3-yl)-2-(5-methyl-2-(1-oxoisoindolin-5-yl)piperidin-1-yl)-2-oxoacetamide], the IC50 in experiment [1] is 0.05 to 0.5 µM; in experiment [2] (read-out: No Cofactor/rel IC50), less than 0.05 µM; in experiment [3] (setting [7]) it was less than 0.1 µM; in experiment [4], greater than 1 µM; in experiment [5] it was less than 0.05 µM; in experiment [6] (setting [9]), 1 to 10 µM. For the same compound, in experiment [3] (setting [8]), the MTAP intact/deleted ratio result was “A (an IC50 ratio greater than or equal to 10 fold)”.
For `COc1ncc(NC(=O)C(=O)N2C[C@@H](C)CC[C@@H]2c2ccc3sc(CCN(C)C)nc3c2)cc1C(N)=O` (single isomer, unassigned) [Compound 1146], the IC50 is less than 0.05 µM in experiment [1]; less than 0.05 µM in experiment [2] (read-out: No Cofactor/rel IC50); less than 0.1 µM in experiment [3] (setting [10]); less than 0.1 µM in experiment [4]; less than 0.05 µM in experiment [5]; less than 1 µM in experiment [6] (setting [11]). Further, the MTAP intact/deleted ratio result in experiment [3] (setting [14]) was “A (an IC50 ratio greater than or equal to 10 fold)”.
Consider `C[C@@H]1CC[C@@H](c2ccc3c(c2)CNC3=O)N(C(=O)C(=O)Nc2cncc(C(N)=O)c2)C1` (single isomer, unassigned) [Compound 740, 5-(2-(5-methyl-2-(1-oxoisoindolin-5-yl)piperidin-1-yl)-2-oxoacetamido)nicotinamide], for which the IC50 in experiment [1] was 0.05 to 0.5 µM; in experiment [2] (read-out: No Cofactor/rel IC50), 0.05 to 0.5 µM; in experiment [3] (setting [10]) it was greater than 1 µM; in experiment [4] it was greater than 1 µM; in experiment [5], less than 0.05 µM; in experiment [6] (setting [13]), 1 to 10 µM. The MTAP intact/deleted ratio entry in experiment [3] (setting [8]) is “B (an IC50 ratio greater than or equal to 3 fold but lower than 10 fold)”.
As to `Cc1ccc([C@H]2CC[C@H](C)CN2C(=O)C(=O)Nc2cncc(C(N)=O)c2)cc1Cl` (single isomer, unassigned) [Compound 484], the IC50 is 0.05 to 0.5 µM in experiment [1]; 0.05 to 0.5 µM in experiment [2] (read-out: No Cofactor/rel IC50); less than 0.1 µM in experiment [3] (setting [10]); greater than 1 µM in experiment [4]; less than 0.05 µM in experiment [5]; 1 to 10 µM in experiment [6] (setting [11]). Moreover, in experiment [3] (setting [8]), the MTAP intact/deleted ratio result is given as “A (an IC50 ratio greater than or equal to 10 fold)”.
For the compound `Cc1cc(NC(=O)C(=O)N2CCCCC2C2CCCC2)cnc1N` (stereo not shown) [Compound 61, N-(6-amino-5-methyl-3-pyridyl)-2-(2-cyclopentyl-1-piperidyl)-2-oxo-acetamide], the IC50 in experiment [1] is greater than 0.5 µM; in experiment [2] (setting [12]) it was 0.05 to 0.5 µM; in experiment [3] (setting [7]) it was less than 0.1 µM; in experiment [4] it was greater than 1 µM; in experiment [5], 0.05 to 0.5 µM; in experiment [6] (setting [11]) it was 1 to 10 µM. Further, the “MTAP intact/deleted ratio” value in experiment [3] (setting [8]) is reported as “A (an IC50 ratio greater than or equal to 10 fold)”.
For `C[C@@H]1CC[C@@H](c2ccc(F)c(F)c2)N(C(=O)C(=O)Nc2cncc(C(N)=O)c2)C1` (racemic) [Compound 263, rac-5-{2-[(2R,5S)-2-(3,4-Difluorophenyl)-5-methylpiperidin-1-yl]-2-oxoacetamido}pyridine-3-carboxamide], the IC50 in experiment [1] was 0.05 to 0.5 µM; in experiment [2] (read-out: No Cofactor/rel IC50), 0.05 to 0.5 µM; in experiment [3] (setting [10]), 0.1 to 1 µM; in experiment [4] it was greater than 1 µM; in experiment [5], less than 0.05 µM; in experiment [6] (setting [11]), 1 to 10 µM. In addition, the MTAP intact/deleted ratio entry in experiment [3] (setting [8]) is “A (an IC50 ratio greater than or equal to 10 fold)”.
Turning to `CCc1cc(NC(=O)C(=O)N2C[C@@H](C)CC[C@@H]2c2ccc3sc(C4(CN(C)C)COC4)nc3c2)cnc1N` [Compound 1165, N-(6-amino-5-ethylpyridin-3-yl)-2-((2R,5S)-2-(2-(3-((dimethylamino)methyl)oxetan-3-yl)benzo[d]thiazol-5-yl)-5-methylpiperidin-1-yl)-2-oxoacetamide], the IC50 in experiment [1] was 0.05 to 0.5 µM; in experiment [2] (read-out: No Cofactor/rel IC50), less than 0.05 µM; in experiment [3] (setting [10]) it was less than 0.1 µM; in experiment [4], less than 0.1 µM; in experiment [5], less than 0.05 µM; in experiment [6] (setting [11]), less than 1 µM. Further, in experiment [3] (setting [14]), the MTAP intact/deleted ratio result is listed as “B (an IC50 ratio greater than or equal to 3 fold but lower than 10 fold)”.
